Measured values published in patent US8383088B2, “Coumestan-like antioxidants and UV absorbants” (BASF SE, priority 2007, dated 2013).

Assay: DPPH assay of antioxidative (antiradical) activity
Conditions: measured in EC50 and 1/EC50 values
From the text: For tests of antioxidative activity, the DPPH assay is used. DPPH (2,2-Diphenyl-1-picrylhydrazyl) is a stable radical, which absorbs in its radical form at 515 nm. Upon reduction by an antioxidant (AH), the absorption disappears:
The rate of reaction (1) can be rather different for different antioxidants. In the case of the vitamins C and E, the equilibrium is reached in several minutes, however for other antioxidants it may also take hours. In the test, the ratio of the molar concentrations of the antioxidant and DPPH is varied (this ratio is named “EC”=efficient concentration), and the concentration of DPPH in the equilibrium state is measured for each ratio. Antiradical activity is defined as the amount of antioxidant necessary to decrease the initial DPPH-concentration by 50%, and is characterized by the so-called EC50 value. The smaller the EC50 value, the more efficient is the antioxidant. Thus, the inverse, 1/EC50, can be used to quantify the antiradical power.
Solutions of DPPH and the antioxidants in ethanol are prepared separately and added together for starting the reaction (0.5 cm^3 of a 250 μM antioxidant solution is added to 2.5 cm^3 of a 100 μM DPPH solution). The absorption is measured using a Perkin Elmer Lambda 20 spectrophotometer.

| SMILES | antioxidant/radical power compared to state-of-the-art antioxidants (101) and (102) |
| --- | --- |
| COc1c(O)c(O)cc2c1oc1cc(C)oc(=O)c12 [Compound A-1, 7,8-dihydroxy-6-methoxy-3-methyl-1H-pyrano[4,3-b]benzofuran-1-one] | significantly higher antioxidant/radical power |
| Cc1cc2oc3cc(O)c(O)cc3c2c(=O)o1 [Compound A-2, 7,8-dihydroxy-3-methyl-1H-pyrano[4,3-b]benzofuran-1-one] | significantly higher antioxidant/radical power |
| Cl.NCCCCCc1cc2oc3cc(O)c(O)cc3c2c(=O)o1 [Compound A-23] | significantly higher antioxidant/radical power |
